# Measured values reported in ChEMBL document CHEMBL1201862, “PubChem BioAssay data set” (2004).
#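 Method: 48-hour compound exposure of cells in 96-well plates, five concentrations, linear interpolation of endpoints. Abbreviation: GI50, concentration required for 50% inhibition of growth.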 Activity calls are given as the source filed them. Rule as the data show it: active = GI50 up to about 1.1 µM and inactive = higher.
# Legend:
# Test in all cases: DTP human tumour cell line panel, 48 h
# OVCAR-3 = system: OVCAR-3
# MDA-N = system: MDA-N
# TK-10 = system: TK-10
# MDA-MB-435 = system: MDA-MB-435
# UACC-62 = system: UACC-62
# MCF7 = system: MCF7
# HT-29 = system: HT-29
# HL-60 = system: HL-60
# Malme-3M = system: Malme-3M
# EKVX = system: EKVX
# M14 = system: M14
# NCI-H226 = system: NCI-H226
# RPMI-8226 = system: RPMI-8226
# SF-268 = system: SF-268
# DU-145 = system: DU-145
# MOLT-4 = system: MOLT-4
# OVCAR-4 = system: OVCAR-4
# SN12C = system: SN12C
# NCI-H460 = system: NCI-H460
# HCC 2998 = system: HCC 2998
Structure (SMILES),GI50 (OVCAR-3),GI50 (MDA-N),GI50 (TK-10),GI50 (MDA-MB-435),GI50 (UACC-62),GI50 (MCF7),GI50 (HT-29),GI50 (HL-60),GI50 (Malme-3M),GI50 (EKVX),GI50 (M14),GI50 (NCI-H226),GI50 (RPMI-8226),GI50 (SF-268),GI50 (DU-145),GI50 (MOLT-4),GI50 (OVCAR-4),GI50 (SN12C),GI50 (NCI-H460),GI50 (HCC 2998)
COc1cc(Cl)c(CC(=O)c2c[nH]c3ccccc23)cc1OC,> 51.9 µM (inactive),> 100 µM (inactive),16.9 µM (inactive),> 100 µM (inactive),> 100 µM (inactive),> 100 µM (inactive),> 100 µM (inactive),> 37.2 µM (inactive),> 100 µM (inactive),18.7 µM (inactive),> 100 µM (inactive),12.6 µM (inactive),> 100 µM (inactive),13.7 µM (inactive),> 100 µM (inactive),> 100 µM (inactive),> 100 µM (inactive),58.5 µM (inactive),> 100 µM (inactive),
O=[N+]([O-])c1ccc(CSCc2ccc(Cl)cc2)cc1,> 100 µM (inactive),> 100 µM (inactive),> 100 µM (inactive),> 100 µM (inactive),> 100 µM (inactive),> 100 µM (inactive),78.3 µM (inactive),33.1 µM (inactive),> 100 µM (inactive),> 100 µM (inactive),> 100 µM (inactive),> 100 µM (inactive),55.7 µM (inactive),> 100 µM (inactive),> 100 µM (inactive),17.5 µM (inactive),> 100 µM (inactive),> 100 µM (inactive),> 100 µM (inactive),
C#CCCOC1(OC)N=NC(C)(C)O1 (stereo unspecified),> 100 µM (inactive),> 100 µM (inactive),,> 100 µM (inactive),> 100 µM (inactive),,> 100 µM (inactive),> 100 µM (inactive),> 100 µM (inactive),> 100 µM (inactive),> 100 µM (inactive),> 100 µM (inactive),> 100 µM (inactive),> 100 µM (inactive),> 100 µM (inactive),> 100 µM (inactive),> 100 µM (inactive),> 100 µM (inactive),> 100 µM (inactive),> 100 µM (inactive)
CCOC(=O)C#Cc1ccc(C#CC(=O)OCC)cc1,2.77 µM (inactive),1.2 µM (inactive),2.9 µM (inactive),0.818 µM (active),3.37 µM (inactive),1.54 µM (inactive),1.99 µM (inactive),2.74 µM (inactive),3.35 µM (inactive),7.74 µM (inactive),2.12 µM (inactive),3.3 µM (inactive),2.56 µM (inactive),3.88 µM (inactive),,1.02 µM (active),2.83 µM (inactive),3.21 µM (inactive),5.13 µM (inactive),6.46 µM (inactive)
CN(c1ccccc1Cl)S(=O)(=O)c1ccccc1,> 100 µM (inactive),> 100 µM (inactive),> 100 µM (inactive),76.6 µM (inactive),> 100 µM (inactive),> 100 µM (inactive),> 100 µM (inactive),14.6 µM (inactive),> 100 µM (inactive),50.4 µM (inactive),> 100 µM (inactive),> 100 µM (inactive),> 100 µM (inactive),> 100 µM (inactive),> 100 µM (inactive),45 µM (inactive),> 100 µM (inactive),> 100 µM (inactive),> 100 µM (inactive),
CC(=O)Nc1ccc2c(C(=O)O)c(C)c(O)nc2n1,,> 100 µM (inactive),> 100 µM (inactive),> 100 µM (inactive),> 100 µM (inactive),> 100 µM (inactive),> 100 µM (inactive),> 100 µM (inactive),95.7 µM (inactive),> 100 µM (inactive),> 100 µM (inactive),33.7 µM (inactive),> 100 µM (inactive),57.7 µM (inactive),> 100 µM (inactive),51.3 µM (inactive),,> 100 µM (inactive),> 100 µM (inactive),
COc1cc(/C=C2\N=C(c3ccccc3)N(C3Nc4cc5c(cc4S3)NC(N3C(=O)/C(=C/c4cc(OC)c(OC)c(OC)c4)N=C3c3ccccc3)S5)C2=O)cc(OC)c1OC (stereo unspecified),61 µM (inactive),74.3 µM (inactive),> 100 µM (inactive),> 100 µM (inactive),,46.7 µM (inactive),74.6 µM (inactive),65.9 µM (inactive),,44.1 µM (inactive),> 100 µM (inactive),> 100 µM (inactive),28.8 µM (inactive),> 100 µM (inactive),94.8 µM (inactive),25.9 µM (inactive),70.5 µM (inactive),,13.7 µM (inactive),> 100 µM (inactive)
CN(CC(=O)O)c1ncc2c(n1)CCCC2,> 100 µM (inactive),> 100 µM (inactive),> 100 µM (inactive),> 100 µM (inactive),> 100 µM (inactive),> 100 µM (inactive),> 100 µM (inactive),> 100 µM (inactive),> 100 µM (inactive),> 100 µM (inactive),> 100 µM (inactive),> 100 µM (inactive),> 100 µM (inactive),> 100 µM (inactive),> 100 µM (inactive),> 100 µM (inactive),> 100 µM (inactive),> 100 µM (inactive),> 100 µM (inactive),
CCOC(=O)C1=C(N2CCCC2)NC(=O)CC1=O,> 100 µM (inactive),> 100 µM (inactive),> 100 µM (inactive),> 100 µM (inactive),> 100 µM (inactive),,> 100 µM (inactive),> 100 µM (inactive),> 100 µM (inactive),> 100 µM (inactive),> 100 µM (inactive),> 100 µM (inactive),> 100 µM (inactive),> 100 µM (inactive),> 100 µM (inactive),> 100 µM (inactive),> 100 µM (inactive),> 100 µM (inactive),,> 100 µM (inactive)
COc1ccc(/C=C/C(=O)c2nc3ccccc3[nH]2)cc1,17.8 µM (inactive),11.9 µM (inactive),18.1 µM (inactive),11.7 µM (inactive),17.6 µM (inactive),8.38 µM (inactive),7.03 µM (inactive),9.79 µM (inactive),19 µM (inactive),15.1 µM (inactive),20.3 µM (inactive),5.32 µM (inactive),3.8 µM (inactive),15.2 µM (inactive),17.3 µM (inactive),18 µM (inactive),21.1 µM (inactive),25.7 µM (inactive),20.5 µM (inactive),
O=C1c2ccccc2C2(c3ccc(Cl)cc3)N[C@@H]3CCCC[C@@H]3N12 (stereo partly specified),> 100 µM (inactive),> 100 µM (inactive),> 100 µM (inactive),> 100 µM (inactive),> 100 µM (inactive),> 100 µM (inactive),,50.1 µM (inactive),,> 100 µM (inactive),> 100 µM (inactive),> 100 µM (inactive),> 100 µM (inactive),> 100 µM (inactive),> 100 µM (inactive),> 100 µM (inactive),> 100 µM (inactive),> 100 µM (inactive),> 100 µM (inactive),> 100 µM (inactive)
O=C1CCN2C(=N1)Sc1ccccc12,> 100 µM (inactive),> 100 µM (inactive),> 100 µM (inactive),> 100 µM (inactive),> 100 µM (inactive),> 100 µM (inactive),> 100 µM (inactive),> 100 µM (inactive),> 100 µM (inactive),> 100 µM (inactive),> 100 µM (inactive),> 100 µM (inactive),> 100 µM (inactive),> 100 µM (inactive),> 100 µM (inactive),> 100 µM (inactive),> 100 µM (inactive),> 100 µM (inactive),> 100 µM (inactive),
CC[C@@H](/C=C\CCC(=O)C[C@H](O)CCC=C(C)C)O[Si](C(C)C)(C(C)C)C(C)C,> 100 µM (inactive),88.9 µM (inactive),> 100 µM (inactive),> 100 µM (inactive),> 100 µM (inactive),79.4 µM (inactive),52.6 µM (inactive),46 µM (inactive),,> 100 µM (inactive),> 100 µM (inactive),> 100 µM (inactive),57.3 µM (inactive),> 100 µM (inactive),> 100 µM (inactive),> 100 µM (inactive),> 100 µM (inactive),> 100 µM (inactive),> 100 µM (inactive),> 100 µM (inactive)
CN1C/C(=C\c2cccs2)C2=NN(c3ccccc3)C(c3cccs3)C2C1 (stereo unspecified),2.79 µM (inactive),1.59 µM (inactive),31.6 µM (inactive),1.61 µM (inactive),> 100 µM (inactive),13.3 µM (inactive),3.14 µM (inactive),1.59 µM (inactive),,14.7 µM (inactive),3.91 µM (inactive),> 100 µM (inactive),3.59 µM (inactive),,5.33 µM (inactive),3.4 µM (inactive),4.47 µM (inactive),4.39 µM (inactive),3.52 µM (inactive),6.21 µM (inactive)
O=C(c1ccco1)N1CCCN(C(=O)c2ccco2)C1=S,> 100 µM (inactive),> 100 µM (inactive),> 100 µM (inactive),> 100 µM (inactive),> 100 µM (inactive),74.8 µM (inactive),> 100 µM (inactive),> 100 µM (inactive),33 µM (inactive),2.32 µM (inactive),> 100 µM (inactive),36.4 µM (inactive),> 100 µM (inactive),> 100 µM (inactive),> 100 µM (inactive),> 100 µM (inactive),,> 100 µM (inactive),> 100 µM (inactive),
